Calls of active or inactive are those of the source.
Columns and labels:
[1] = blockade of melanocortin 4 receptor signaling – cell-based, plate reader, cherry pick, counter-screen for LGR2 antagonist project, dose response (AID 743444); assay type: functional;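 also: transfected HEK 293 cells stimulated with alpha-MSH peptide; potency of inhibitors of the alpha-MSH evoked signal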
[2] = biological target: T1, Replicative DNA helicase DnaB (Mycobacterium tuberculosis, UniProt P9WMR3); assay: DnaB intein splicing inhibitors, dose response, biochemical, cell-free fluorescence (AID 449749); assay type: functional
T1 sequence (P9WMR3 whole entry): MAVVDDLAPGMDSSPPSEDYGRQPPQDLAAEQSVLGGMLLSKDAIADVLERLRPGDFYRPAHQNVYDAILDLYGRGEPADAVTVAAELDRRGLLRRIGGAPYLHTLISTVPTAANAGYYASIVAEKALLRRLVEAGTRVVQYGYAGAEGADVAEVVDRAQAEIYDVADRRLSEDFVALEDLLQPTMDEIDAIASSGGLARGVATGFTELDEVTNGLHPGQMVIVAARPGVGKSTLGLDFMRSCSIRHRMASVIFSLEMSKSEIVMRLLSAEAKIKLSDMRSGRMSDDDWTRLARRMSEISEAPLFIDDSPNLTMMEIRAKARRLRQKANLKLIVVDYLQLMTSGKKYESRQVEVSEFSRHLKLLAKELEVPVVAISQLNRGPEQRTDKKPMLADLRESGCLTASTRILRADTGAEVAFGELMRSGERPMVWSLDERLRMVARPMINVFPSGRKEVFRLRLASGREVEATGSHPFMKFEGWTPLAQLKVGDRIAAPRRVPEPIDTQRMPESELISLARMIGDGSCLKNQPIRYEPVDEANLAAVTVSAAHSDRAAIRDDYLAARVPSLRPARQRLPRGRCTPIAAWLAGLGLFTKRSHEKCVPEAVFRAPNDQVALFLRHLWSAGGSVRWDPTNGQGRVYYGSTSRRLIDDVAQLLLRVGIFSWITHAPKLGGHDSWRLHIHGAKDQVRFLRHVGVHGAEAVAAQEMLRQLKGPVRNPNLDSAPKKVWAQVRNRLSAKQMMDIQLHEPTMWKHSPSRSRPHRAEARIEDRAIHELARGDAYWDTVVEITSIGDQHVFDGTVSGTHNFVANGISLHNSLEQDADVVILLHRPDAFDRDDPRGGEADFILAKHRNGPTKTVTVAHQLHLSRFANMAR

HEK293 = assay: membrane integrity loss in HEK cells – cell-based, fluorescence, cytotoxicity control for IDE activator project, dose response (AID 588440); assay type: functional; conditions: Homo sapiens;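 also: cytotoxicity by LDH release measuring loss of membrane integrity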
[3] = non-specific 3'UTR reporter inhibition in Clone20-Shn3RL – cell-based, Renilla luciferase, cherry-picked, counter-screen for Shn3 inhibitor project, dose response (AID 624133); assay type: functional
Paired box protein Pax-8 = Paired box protein Pax-8 (Homo sapiens, UniProt Q06710); assay: PAX8 transcriptional activity inhibition in RMG-I – RMG-I cells, luciferase, cherry-pick, dose response (AID 687027); assay type: functional, cell-based;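 also: luciferase reporter driven by Pax8 target thyroperoxidase promoter measured by SteadyGlo luminescence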
Sequence of Paired box protein Pax-8 (Q06710 whole entry): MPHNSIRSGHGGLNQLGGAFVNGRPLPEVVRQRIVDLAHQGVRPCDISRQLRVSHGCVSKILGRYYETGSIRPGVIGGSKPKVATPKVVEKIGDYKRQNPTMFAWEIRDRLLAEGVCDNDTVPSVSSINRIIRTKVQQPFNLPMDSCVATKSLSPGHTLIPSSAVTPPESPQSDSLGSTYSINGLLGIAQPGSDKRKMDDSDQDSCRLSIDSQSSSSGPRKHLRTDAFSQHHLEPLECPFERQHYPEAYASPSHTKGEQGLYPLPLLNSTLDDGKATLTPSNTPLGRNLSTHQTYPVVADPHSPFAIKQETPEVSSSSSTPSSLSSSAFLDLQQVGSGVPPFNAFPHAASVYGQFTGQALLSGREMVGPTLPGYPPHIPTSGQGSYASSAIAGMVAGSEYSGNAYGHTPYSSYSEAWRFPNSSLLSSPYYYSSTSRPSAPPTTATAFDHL

[4] = biological target: T2, Ubiquitin-conjugating enzyme E2 N (Homo sapiens, UniProt P61088); assay type: functional;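 also: Dose-response confirmation in a TR-FRET assay detecting UBC13-driven polyubiquitin chain formation, inhibition measured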
T2 sequence (P61088 whole entry): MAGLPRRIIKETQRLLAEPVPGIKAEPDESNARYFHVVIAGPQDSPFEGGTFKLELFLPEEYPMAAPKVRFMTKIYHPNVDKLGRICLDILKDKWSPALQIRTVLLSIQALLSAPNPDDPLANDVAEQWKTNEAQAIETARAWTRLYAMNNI

In the case of Cl.N=c1n(Cc2ccccc2)c2ccccc2n1CC(O)COc1ccc(Cl)cc1Cl (stereo unspecified), the AC50 [1] is reported as 26.6 µM (active), the AC50 [2] is reported as 2.51 µM (active) and the IC50 (HEK293) is reported as 8.27 µM (active). For the same compound, the AC50 [3] was 5.16 µM (active), the AC50 (Paired box protein Pax-8) was 17.2 µM (active) and the IC50 [4] was > 20 µM (inactive).

— ChEMBL document CHEMBL1201862, “PubChem BioAssay data set” (2004)
